Laboratory results reported in patent publication US20260337191A1, “CRYSTAL FORM OF EMRACLIDINE, PREPARATION METHOD THEREFOR, AND USE THEREOF” (Cerevel Therapeutics, LLC, priority 2022, published 2026).

How the values were obtained:
[1] = Stability under mechanical force: ball milling, XRPD; type: physicochemical; settings: 500 rpm, 5 minutes, XRPD before and after
Procedure: A crystal-form-CSII sample was ball-milled at a vibration speed of 500 rpm for 5 minutes using a ball mill, the sample before and after ball milling was tested by XRPD, the test result is shown in FIG. 17, and crystal form CSII is not changed after ball milling.
A crystal-form-CSIII sample was ball-milled at a vibration speed of 500 rpm for 5 minutes using a ball mill. The sample before and after ball milling was tested by XRPD, the test result is shown in FIG. 22, and crystal form CSIII is not changed after the ball milling.
A crystal-form-CSIV sample was ball-milled at a vibration speed of 500 rpm for 5 minutes using a ball mill, the sample before and after ball milling was tested by XRPD, the test result is shown in FIG. 25, and crystal form CSIV is not changed after ball milling.
A crystal-form-CSV sample was ball-milled at a vibration speed of 500 rpm for 5 minutes using a ball mill, the sample before and after ball milling was tested by XRPD, the test result is shown in FIG. 28, and crystal form CSV is not changed after ball milling.

[2] = Hygroscopicity by dynamic vapor sorption (DVS); type: physicochemical; settings: for weight increase due to hygroscopicity: 25° C.
Procedure: The dynamic vapor sorption (DVS) pattern for the experiment is collected by an Intrinsic dynamic vapor sorption instrument manufactured by Surface Measurement Systems Ltd. (SMS). Control software for the instrument is DVS-Intrinsic control software. The method parameters of the dynamic vapor sorption instrument are as follows: • temperature: 25° C., • carrier gas, and flow rate: N2, and 200 ml/min, • mass change per unit time: 0.002%/min, • relative humidity range: 0% RH-95% RH.
(§1) About 10 mg of a crystal-form-CSI sample was taken and tested for hygroscopicity using a dynamic vapor sorption (DVS) instrument, with a relative humidity cycle of 30%-90%-0%-90% RH, and a mass change for each humidity was recorded. The sample was tested by XRPD before and after DVS testing. […] The DVS pattern of crystal form CSI is shown in FIG. 13, and the weight increase of crystal form CSI due to hygroscopicity is 0.36% at 30%-80% RH.
as §1, with “crystal-form-CSII” for “crystal-form-CSI”, “0%-90%-0%” for “30%-90%-0%-90%”, “CSII” for “CSI”, “18,” for “13,”, “0.28%” for “0.36%”, “0%-80%” for “30%-80%”
as §1, with “crystal-form-CSIII” for “crystal-form-CSI”, “0%-90%-0%” for “30%-90%-0%-90%”, “CSIII” for “CSI”, “23,” for “13,”, “0.21%” for “0.36%”, “0%-80%” for “30%-80%”
as §1, with “crystal-form-CSIV” for “crystal-form-CSI”, “0%-90%-0%” for “30%-90%-0%-90%”, “CSIV” for “CSI”, “26,” for “13,”, “0.11%” for “0.36%”, “0%-80%” for “30%-80%”
as §1, with “crystal-form-CSV” for “crystal-form-CSI”, “a” for “a relative humidity”, “CSV” for “CSI”, “29,” for “13,”, “0.29%” for “0.36%”

[3] = Thermal gravimetric analysis (TGA); type: physicochemical; settings: 10° C./min, N2
Procedure: The thermal gravimetric analysis (TGA) pattern as described in the invention is collected by TA Q500. The parameters for the thermal gravimetric analysis (TGA) method described in the invention are as follows: • scanning speed: 10° C./min, • protective gas: N2.

[4] = Storage stability of crystal form drug substance (HPLC purity and XRPD); type: physicochemical
Procedure: The X-ray powder diffraction pattern described in the invention is collected by a Bruker X-ray powder diffractometer. The parameters for the X-ray powder diffraction method according to the invention are as follows: • X-ray light source: Cu, Kα, • Kα1 (Å): 1.54060; Kα2 (Å): 1.54439, • Kα2/Kα1 intensity ratio: 0.50.
An appropriate amount of a crystal-form-CSI sample was packaged under corresponding packaging conditions and stored at 40° C./75% RH for a certain period of time, the purity and crystal form were determined by HPLC and XRPD, and the results are shown in Table 7.
Open: a sample was placed in a glass vial without a lid and stored in corresponding environment while the vial was open.
An appropriate amount of a crystal-form-CSII sample was packaged under corresponding packaging conditions and stored for a certain period of time at 25° C./60% RH, 40° C./75% RH, and 60° C./75% RH, the purity and crystal form were determined by HPLC and XRPD, and the result is shown in Table 12.
Sealing: The sample was placed in a glass vial, which was covered by a lid and sealed in a double-layer PE bag, followed by an aluminum foil bag. […]
Sealed: The sample was placed in a glass vial, which was covered by a lid and sealed in a double-layer PE bag, followed by an aluminum foil bag. […]
An appropriate amount of a crystal-form-CSV sample was packaged under corresponding packaging conditions and stored for a certain period of time at 25° C./60% RH, 40° C./75% RH, and 60° C./75% RH, the purity and crystal form were determined by HPLC and XRPD, and the result is shown in Table 16.

[5] = Crystal form stability in formulation process, XRPD; type: physicochemical; settings: formula Table 8, process Table 10, XRPD
Procedure: A crystal-form-CSI formulation was prepared by using the formulation formula shown in table 8 and the formulation process shown in table 10, and a formula for mixture of excipients is shown in table 9. A mixture of excipients and the sample before and after the formulation formulas were tested by XRPD, and the result is shown in FIG. 14.
(§2) A crystal-form-CSII formulation was prepared by using the formulation formula shown in Table 8 and the formulation process shown in Table 10, and an excipient formula is shown in Table 9. A mixture of excipients and the sample before and after the formulation formulas were tested by XRPD, and the result is shown in FIG. 19.
as §2, with “crystal-form-CSV” for “crystal-form-CSII”, “30.” for “19.”

[6] = Stability under mechanical force: tableting, XRPD; type: physicochemical; settings: 15 KN, φ 6 mm round tooling, XRPD before and after
[7] = Phase-Ib clinical result, Cerevel Therapeutics; cited from earlier work
[8] = heated from room temperature to 180° C.

Compound | crystal form after ball milling [1] | weight increase due to hygroscopicity ([2]; 0%-80% RH) [%] | change in sample properties after humidity cycle ([2]; 0%-90%-0% RH cycle) | crystal form after DVS testing ([2]; 0%-90%-0% RH cycle) | TGA weight loss [3, 8] | stable for at least ([4]; 25° C./60% RH) | Crystal Form ([4]; 25° C./60% RH, sealed, 6 month) | stable for at least ([4]; 40° C./75% RH) | Crystal Form ([4]; 40° C./75% RH, sealed, 6 month) | stable for at least ([4]; 60° C./75% RH) | Crystal Form ([4]; 60° C./75% RH, sealed, 1 month) | Crystal Form ([4]; initial (before storage)) | Purity ([4]; 25° C./60% RH, sealed, 6 month) [%] | Purity ([4]; 40° C./75% RH, sealed, 6 month) [%] | Purity ([4]; initial (before storage)) [%] | crystal form after formulation formula processes [5] | crystal form after tableting [6] | weight increase due to hygroscopicity ([2]; 30%-80% RH) [%] | change in sample properties after humidity cycle ([2]; 30%-90%-0%-90% RH cycle) | crystal form after DVS testing ([2]; 30%-90%-0%-90% RH cycle) | also measured
Cc1cc(C)c2c(n1)CN(C(=O)CC1CN(c3ccnc(C(F)(F)F)c3)C1)C2 [Crystal Form CSIV] | not changed | 0.11 | no significant change in sample properties | not changed | substantially no weight loss | at least 6 months | Form CSIV | at least 6 months | Form CSIV | at least 1 month | Form CSIV | Form CSIV | – | – | – | – | – | – | – | – | –
Cc1cc(C)c2c(n1)CN(C(=O)CC1CN(c3ccnc(C(F)(F)F)c3)C1)C2 [Crystal Form CSII] | not changed | 0.28 | no significant change in sample properties | not changed | substantially no weight loss | at least 6 months | Form CSII | at least 6 months | Form CSII | at least 1 month | Form CSII | Form CSII | 99.60 | 99.57 | 99.56 | not changed | not changed | – | – | – | Purity ([4]; 60° C./75% RH, sealed, 1 month): 99.55%
Cc1cc(C)c2c(n1)CN(C(=O)CC1CN(c3ccnc(C(F)(F)F)c3)C1)C2 [Crystal Form CSV] | not changed | – | – | – | – | at least 6 months | Form CSV | at least 6 months | Form CSV | at least 2 month | – | Form CSV | 99.96 | 99.96 | 99.96 | not changed | not changed | 0.29 | no significant change in sample properties | not changed | TGA weight loss ([3]; heated from 35° C. to 150° C.): 3.8%; Crystal Form ([4]; 60° C./75% RH, sealed, 2 month): Form CSV; Purity ([4]; 60° C./75% RH, sealed, 2 month): 99.95%
Cc1cc(C)c2c(n1)CN(C(=O)CC1CN(c3ccnc(C(F)(F)F)c3)C1)C2 [Emraclidine, 1-(2,4-dimethyl-5,7-dihydro-6H-pyrrolo[3,4-b]pyridin-6-yl)-2-{1-[2-(trifluoromethyl)pyridin-4-yl]azetidin-3-yl}ethanone] | – | – | – | – | – | – | – | – | – | – | – | – | – | – | – | – | – | – | – | – | antipsychotic activities compared to placebos [7]: clinically significant antipsychotic activities
Cc1cc(C)c2c(n1)CN(C(=O)CC1CN(c3ccnc(C(F)(F)F)c3)C1)C2 [Crystal Form CSIII] | not changed | 0.21 | – | not changed | – | – | – | at least 2 months | – | – | – | Form CSIII | – | – | – | – | – | – | – | – | TGA weight loss ([3]; heated from room temperature to 170° C.): substantially no weight loss; Crystal Form ([4]; 40° C./75% RH, sealed, 2 month): Form CSIII
Cc1cc(C)c2c(n1)CN(C(=O)CC1CN(c3ccnc(C(F)(F)F)c3)C1)C2 [Crystal Form CSI] | remains unchanged | – | no significant change in sample properties | – | – | – | – | at least 6 months | – | – | – | Form CSI | – | – | 99.53 | not changed | remains unchanged | 0.36 | no significant change in sample properties | remains unchanged | Crystal Form ([4]; 40° C./75% RH, open, 6 month): Form CSI; Purity ([4]; 40° C./75% RH, open, 6 month): 99.59%
